In patent EP0775487A1, “TRIAZINE DERIVATIVE AND MEDICINE” (NIPPON SHINYAKU COMPANY, LIMITED, priority 1994, dated 1996):
Where two headings read alike, the source gives them in different places. Marks after values point to notes of the source that are not given here.

Columns and labels:
[1] = test system: BCG-LPS-induced fulminant hepatitis; test: Inhibitory effect on BCG-LPS-induced fulminant hepatitis in mice (antihepatitis effect); assay type: in vivo, BALB/C mice; conditions: for Number of deaths/number of animals/used: 50 mg/kg orally 1 hour before LPS i.v., deaths at 48 hours, control mortality 80-100%; for inhibition at 50 mg/kg: Mus musculus, po, 50 mg/kg orally, plasma transaminase at hour 4 after LPS
Method: The antihepatitis action of the compound of the invention could be confirmed by the following test in mice. This test is the commonest animal test for evaluating the antihepatitis effect of drugs. It is known that the antihepatitis effect evaluated by this test method is highly correlated with the clinical effect in man (Kondo, Y. et al. Chem. Pharm. Bull. 38, 2887-2889, 1990). Method: Six-week-old male BALB/C mice were intravenously dosed with 1 mg of BCG and after 2 weeks, 50 mg/kg of the test drug was administered orally. Then, after 1 hour, 2.5 µg of lipopolysaccharide (LPS) was injected intravenously to induce hepatitis. To find the LPS-associated mortality, the percentage of deaths at 48 hours was calculated. The mortality in the control group was 80-100%. […] However, for reference's sake, blood was drawn from the orbital vein at hour 4 and the plasma transaminase (GOT, GPT) concentrations were determined. As a reference compound, 2,4-diamino-6-(2,5-dichlorophenyl)-1,3,5-triazine was used.

[2] = test system: GST-P-positive lesions; test: Inhibitory effect on hepatic chemooncogenesis in rats (DEN/AAF/hepatectomy precancerous lesion model, GST-P immunostaining); assay type: in vivo, F344 rats; conditions: for GST-P^+ area (mm^2/cm^2) mean±S.E. / GST-P^+ foci (N/cm^2) mean±S.E.: 0.01% in chow from week 2 to final day (4-week experiment); for GST-P^+ area (mm^2/cm^2) inhibition (%) / GST-P^+ foci (N/cm^2) inhibition (%): 0.01% in chow, versus own control group
Method: Method: Five-week-old male F344 rats (Slc), a precancerous lesion model was constructed using the following protocol in accordance with the method of Solt and Faber (Nature, 263, 702-703, 1976). [formula] • ↑ : DEN 200 mg/kg, i.p. • : 70% hepatectomy • : 0.02% AAF • : Diet or water • ←→ : Drug administration period
Thus, the duration of the experiment being set at 4 weeks, 200 mg/kg of diethylnitrosoamine (hereinafter referred to briefly as DEN) was first administered intraperitoneally. Beginning week 2, drinking water containing 0.02% of 2-acetylaminofluorene (hereinafter referred to briefly as AAF) was given ad libitum. At the beginning of week 3, 70% hepatectomy was performed. The test drug was mixed into the animal chow (F-2, Funabashi Farm) at the concentration of 0.01% and administered from week 2 through the final day of the experiment. The compound of Example 1 was used as the test drug and 2,4-diamino-6-(2,5-dichlorophenyl)-1,3,5-triazine as the reference compound.
On the final day of the experiment, all the animals were sacrificed by cervical dislocation under ether anaesthesia. Immediately a portion of the liver was excised, quick-frozen in dry ice-acetone, and stored until used. From the liver, 8 µm-thick frozen sections were prepared and using Vectastain ABC Kit (Funakoshi Yakuhin), immunostained by the ABC method (an enzyme-labeled antibody method) using anti-glutathione-S-transferase placental form (hereinafter referred to briefly as GST-P) antibody as the primary antibody. Thus, sections were returned to room temperature under anhydrous conditions and immersed in 10 mM phosphate-buffered saline (hereinafter referred to briefly as PBS) at pH 7.2 for 15 minutes. Then, goat normal serum and the primary antibody (a 500-fold dilution, 20 µl) were applied to the section and allowed to react overnight. After the reaction, the section was washed with PBS. Then, anti-rabbit secondary antibody was applied and the reaction was carried out for 30 minutes. After washing with PBS, avidin-biotin complex was applied and allowed to react for 30 minutes. The section was washed with PBS and treated with 0.1% diaminobenzidine (DAB) containing 0.02% of hydrogen peroxide for color development, dehydrated, and sealed.
The number of GST-P-positive lesions per cm^2 liver tissue section was counted under an optical microscope and the area was measured with an image analyzer (SPICCA-II, Japan Avionics). The significance testing of mean values was made by Student's t-test and the result was evaluated at the 5% leval of significance.

[3] = Acute toxicity; assay type: in vivo, Rats (SD strain); conditions: 1 g/kg orally by gastric gavage, fasted rats, groups of 5
Method: Rats of either sex (SD strain, […]) were used in groups of 5. The animals were deprived of food from the previous day (16-18 hours before) and 1 g/kg of the compound of Example 1 was administered orally by gastric gavage. Then, deaths during the subsequent one-week period were recorded.

[4] = Effect on body weight gain; assay type: in vivo; conditions: 1,000 mg/kg administered repeatedly (daily), rats
Method: The compound of Example 1 was administered to rats daily to investigate its effect on body weight gain.

SMILES	Number of deaths/number of animals/used [1]	inhibition at 50 mg/kg ([1]; read-out: % Inhibition GOT) [%]	inhibition at 50 mg/kg ([1]; read-out: % Inhibition GPT) [%]	GST-P^+ area (mm^2/cm^2) mean±S.E. [2] [mm^2/cm^2]	GST-P^+ foci (N/cm^2) mean±S.E. [2] [N/cm^2]	GST-P^+ area (mm^2/cm^2) inhibition (%) [2] [%]	GST-P^+ foci (N/cm^2) inhibition (%) [2] [%]	deaths during the subsequent one-week period [3]	effect on body weight gain [4]
CNc1nc(N)nc(-c2cc(Cl)ccc2Cl)n1 [Example 2, 2-Amino-4-(2,5-dichlorophenyl)-6-methylamino-1,3,5-triazine]	0/10**	46	33	–	–	–	–	–	–
Cc1ccc(OCCN2CCN(c3nc(N)nc(-c4cc(Cl)ccc4Cl)n3)CC2)cc1 [Example 21, 2-Amino-4-(2,5-dichlorophenyl)-6-[4-[2-(4-methylphenoxy)ethyl]piperazin-1-yl]-1,3,5-triazine]	0/10**	29	10	–	–	–	–	–	–
Cl.Nc1nc(-c2cc(Cl)ccc2Cl)nc(N2CCC[C@H]2CO)n1 [Example 32, (S)-2-amino-4-(2,5-dichlorophenyl)-6-(2-hydroxymethyl-1-pyrrolidinyl)-1,3,5-triazine hydrochloride]	0/18**	62	60	–	–	–	–	–	–
CN(C)c1nc(N)nc(-c2cc(Cl)ccc2Cl)n1 [Example 3, 2-Amino-4-(2,5-dichlorophenyl)-6-dimethylamino-1,3,5-triazine]	0/10**	37	38	–	–	–	–	–	–
Cl.Cl.NCC1CCN(c2nc(N)nc(-c3cc(Cl)ccc3Cl)n2)C1 (stereo not shown) [Example 62, 2-Amino-4-(2,5-dichlorophenyl)-6-(3-aminomethyl-1-pyrrolidinyl)-1,3,5-triazine dihydrochloride]	0/15**	29	38	–	–	–	–	–	–
Nc1nc(-c2cc(Cl)ccc2Cl)nc(N2CCOCC2)n1 [Reference Example 5, 2-Amino-4-(2,5-dichlorophenyl)-6-morpholino-1,3,5-triazine]	0/18**	58	45	–	–	–	–	–	–
Nc1nc(-c2cc(Cl)ccc2Cl)nc(N2CCC(=O)CC2)n1 [Example 56, 2-Amino-4-(2,5-dichlorophenyl)-6-(4-oxo-1-piperidinyl)-1,3,5-triazine]	0/15**	38	37	–	–	–	–	–	–
COCCNc1nc(N)nc(-c2cc(Cl)ccc2Cl)n1 [Example 6, 2-Amino-4-(2,5-dichlorophenyl)-6-(2-methoxyethylamino)-1,3,5-triazine]	2/10**	34	29	–	–	–	–	–	–
Cl.Nc1nc(-c2cc(Cl)ccc2Cl)nc(N2CCC[C@@H]2CO)n1 [Example 33, (R)-2-amino-4-(2,5-dichlorophenyl)-6-(2-hydroxymethyl-1-pyrrolidinyl)-1,3,5-triazine hydrochloride]	0/18**	39	41	–	–	–	–	–	–
Nc1nc(-c2cc(Cl)ccc2Cl)nc(N2CCCC(O)C2)n1 (stereo not shown) [Example 37, 2-Amino-4-(2,5-dichlorophenyl)-6-(3-hydroxy-1-piperidinyl)-1,3,5-triazine]	0/18**	43	38	–	–	–	–	–	–
Nc1nc(-c2cc(Cl)ccc2Cl)nc(N2CCCC2)n1 [Example 30, 2-Amino-4-(2,5-dichlorophenyl)-6-pyrrolidino-1,3,5-triazine]	0/18**	45	31	–	–	–	–	–	–
Nc1nc(-c2cc(Cl)ccc2Cl)nc(N(CCO)CCO)n1 [Example 1, 2-amino-4-[N,N-bis(2-hydroxyethyl)amino]-6-(2,5-dichlorophenyl)-1,3,5-triazine]	2/10**	37	17	0.8± 0.2	41.5± 5.2	48.6	28.9	no death was found at all	did not affect body weight gain
CN(CCO)c1nc(N)nc(-c2cc(Cl)ccc2Cl)n1 [Example 5, 2-Amino-4-(2,5-dichlorophenyl)-6-[N-methyl-N-(2-hydroxyethyl)amino]-1,3,5-triazine]	0/10**	43	18	–	–	–	–	–	–
Nc1nc(N)nc(-c2cc(Cl)ccc2Cl)n1 [Reference Compound, 2,4-diamino-6-(2,5-dichlorophenyl)-1,3,5-triazine, reference compound]	0/10*	21	-6	3.6±0.7	67.9± 8.7	7.7	9.7	–	–
Nc1nc(-c2cc(Cl)ccc2Cl)nc(N2CCC(O)C2)n1.O=C(O)/C=C\C(=O)O (stereo not shown) [Example 31, 2-Amino-4-(2,5-dichlorophenyl)-6-(3-hydroxy-1-pyrrolidinyl)-1,3,5-triazine maleate]	1/18**	47	34	–	–	–	–	–	–
